Assay [1] concerns the target T1, Phosphorylase b kinase gamma catalytic chain, liver/testis isoform (Homo sapiens) (UniProt P15735).
T1 sequence (whole entry): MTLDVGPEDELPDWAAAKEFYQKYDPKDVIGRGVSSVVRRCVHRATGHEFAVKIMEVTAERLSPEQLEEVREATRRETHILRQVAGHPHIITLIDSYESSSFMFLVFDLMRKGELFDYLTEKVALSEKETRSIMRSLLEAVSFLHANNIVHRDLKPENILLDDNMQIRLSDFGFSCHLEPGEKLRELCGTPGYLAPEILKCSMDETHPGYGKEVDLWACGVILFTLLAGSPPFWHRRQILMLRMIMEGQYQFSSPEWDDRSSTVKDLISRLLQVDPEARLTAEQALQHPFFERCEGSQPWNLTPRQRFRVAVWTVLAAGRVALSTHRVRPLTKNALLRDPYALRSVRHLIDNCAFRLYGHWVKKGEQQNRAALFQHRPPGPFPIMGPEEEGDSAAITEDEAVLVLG
In words: Inhibition of human PHKg2 at 18.6 nM by HotSpot assay relative to control.

The target in assay [2] is Tyrosine-protein kinase ABL1 (Homo sapiens) (UniProt P00519). The assay can be described thus: Inhibition of human ABL1 at 18.6 nM by HotSpot assay relative to control.
Assay [3] addresses Non-receptor tyrosine-protein kinase TYK2 (Homo sapiens) (UniProt P29597). In words: Inhibition of human TYK2 at 18.6 nM by HotSpot assay relative to control.
In assay [4] the target is Serine/threonine-protein kinase N2 (Homo sapiens) (UniProt Q16513). In words: Inhibition of human PRK2 at 18.6 nM by HotSpot assay relative to control.
Assay [5] has as its target MAP kinase-activated protein kinase 2 (Homo sapiens) (UniProt P49137). The assay can be described thus: Inhibition of human MAPKAPK2 at 18.6 nM by HotSpot assay relative to control.
The target of assay [6] is Serine/threonine-protein kinase Chk2 (Homo sapiens) (UniProt O96017). The assay can be described thus: Inhibition of human CHK2 at 18.6 nM by HotSpot assay relative to control.
Chain of Serine/threonine-protein kinase Chk2 (Homo sapiens) (O96017 whole entry): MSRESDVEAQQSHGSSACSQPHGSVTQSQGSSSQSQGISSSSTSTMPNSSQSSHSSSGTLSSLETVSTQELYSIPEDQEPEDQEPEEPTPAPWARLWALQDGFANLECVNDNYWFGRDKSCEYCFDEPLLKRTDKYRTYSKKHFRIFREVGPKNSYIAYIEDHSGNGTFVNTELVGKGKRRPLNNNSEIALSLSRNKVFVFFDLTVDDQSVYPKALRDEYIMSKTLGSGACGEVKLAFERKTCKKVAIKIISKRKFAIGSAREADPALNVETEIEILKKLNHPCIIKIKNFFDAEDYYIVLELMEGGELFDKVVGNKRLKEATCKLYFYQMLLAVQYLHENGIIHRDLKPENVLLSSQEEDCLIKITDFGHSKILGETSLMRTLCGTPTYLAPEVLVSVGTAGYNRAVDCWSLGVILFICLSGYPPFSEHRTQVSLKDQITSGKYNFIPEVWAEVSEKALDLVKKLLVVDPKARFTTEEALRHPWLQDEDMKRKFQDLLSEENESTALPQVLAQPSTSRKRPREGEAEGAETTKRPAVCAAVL
The target of assay [7] is Serine/threonine-protein kinase N1 (Homo sapiens) (UniProt Q16512). In words: Inhibition of human PRK1 at 18.6 nM by HotSpot assay relative to control.
Chain of Serine/threonine-protein kinase N1 (Homo sapiens) (Q16512 2-942 limits assumed): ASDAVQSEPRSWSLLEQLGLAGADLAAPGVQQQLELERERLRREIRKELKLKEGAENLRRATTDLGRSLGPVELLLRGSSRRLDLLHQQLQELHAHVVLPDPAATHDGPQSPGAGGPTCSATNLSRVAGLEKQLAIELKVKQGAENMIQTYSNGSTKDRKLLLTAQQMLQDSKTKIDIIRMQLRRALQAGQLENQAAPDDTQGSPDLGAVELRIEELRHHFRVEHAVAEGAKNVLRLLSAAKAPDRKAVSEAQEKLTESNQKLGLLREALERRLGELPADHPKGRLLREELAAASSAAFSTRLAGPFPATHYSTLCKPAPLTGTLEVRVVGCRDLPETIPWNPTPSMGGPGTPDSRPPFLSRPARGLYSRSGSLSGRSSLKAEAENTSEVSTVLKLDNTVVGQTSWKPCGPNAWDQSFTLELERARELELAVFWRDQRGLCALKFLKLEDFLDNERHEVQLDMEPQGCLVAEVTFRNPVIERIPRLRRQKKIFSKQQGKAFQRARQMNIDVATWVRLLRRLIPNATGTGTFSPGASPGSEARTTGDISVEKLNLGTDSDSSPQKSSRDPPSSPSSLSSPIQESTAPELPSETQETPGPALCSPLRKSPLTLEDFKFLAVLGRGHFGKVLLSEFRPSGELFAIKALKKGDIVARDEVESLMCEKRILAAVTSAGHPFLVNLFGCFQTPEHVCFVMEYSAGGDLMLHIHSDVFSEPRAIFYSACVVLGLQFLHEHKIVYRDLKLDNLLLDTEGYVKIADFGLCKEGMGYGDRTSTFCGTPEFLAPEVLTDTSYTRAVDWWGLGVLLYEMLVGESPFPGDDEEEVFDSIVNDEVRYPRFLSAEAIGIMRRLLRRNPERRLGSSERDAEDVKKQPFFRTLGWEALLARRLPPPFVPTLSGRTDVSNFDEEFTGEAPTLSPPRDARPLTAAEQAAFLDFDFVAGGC
Assay [8] deals with Angiopoietin-1 receptor (Homo sapiens) (UniProt Q02763). In words: Inhibition of human TEK at 1.82 nM by HotSpot assay relative to control.
For assay [9], the target named is Serine/threonine-protein kinase SIK2 (Homo sapiens) (UniProt Q9H0K1). In words: Inhibition of human SIK2 at 1.82 nM by HotSpot assay relative to control.
For assay [10], the target named is Serine/threonine-protein kinase PLK1 (Homo sapiens) (UniProt P53350). In words: Inhibition of human PLK1 at 1.82 nM by HotSpot assay relative to control.
Chain of Serine/threonine-protein kinase PLK1 (Homo sapiens) (P53350 whole entry): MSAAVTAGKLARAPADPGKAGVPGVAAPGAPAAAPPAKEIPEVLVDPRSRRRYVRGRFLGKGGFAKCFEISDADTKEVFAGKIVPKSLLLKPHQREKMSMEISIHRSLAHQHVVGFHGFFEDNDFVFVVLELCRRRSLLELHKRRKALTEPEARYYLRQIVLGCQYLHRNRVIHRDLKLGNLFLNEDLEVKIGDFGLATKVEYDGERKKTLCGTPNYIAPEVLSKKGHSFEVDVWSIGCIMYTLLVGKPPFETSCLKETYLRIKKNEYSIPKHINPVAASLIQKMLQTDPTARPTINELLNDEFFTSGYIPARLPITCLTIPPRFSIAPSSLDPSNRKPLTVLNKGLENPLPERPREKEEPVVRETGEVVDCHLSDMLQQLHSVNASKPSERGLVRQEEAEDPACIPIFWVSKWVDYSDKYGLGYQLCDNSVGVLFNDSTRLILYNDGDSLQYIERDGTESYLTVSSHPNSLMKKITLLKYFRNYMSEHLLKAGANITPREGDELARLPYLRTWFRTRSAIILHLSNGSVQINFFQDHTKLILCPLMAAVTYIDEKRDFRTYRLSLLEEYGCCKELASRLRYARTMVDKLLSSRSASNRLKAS
For assay [11], the target named is CDK9/Cyclin K (Homo sapiens) (UniProt P50750+O75909). In words: Inhibition of human CDK9/cyclin K at 1.82 nM by HotSpot assay relative to control. The class given is protein-complex assay.
Assay [12] concerns the target Calcium/calmodulin-dependent protein kinase type II subunit beta (Homo sapiens) (UniProt Q13554). In words: Inhibition of human CAMK2b at 1.82 nM by HotSpot assay relative to control.
The target of assay [13] is T2, Serine/threonine-protein kinase Nek3 (Homo sapiens) (UniProt P51956).
T2 sequence (whole entry): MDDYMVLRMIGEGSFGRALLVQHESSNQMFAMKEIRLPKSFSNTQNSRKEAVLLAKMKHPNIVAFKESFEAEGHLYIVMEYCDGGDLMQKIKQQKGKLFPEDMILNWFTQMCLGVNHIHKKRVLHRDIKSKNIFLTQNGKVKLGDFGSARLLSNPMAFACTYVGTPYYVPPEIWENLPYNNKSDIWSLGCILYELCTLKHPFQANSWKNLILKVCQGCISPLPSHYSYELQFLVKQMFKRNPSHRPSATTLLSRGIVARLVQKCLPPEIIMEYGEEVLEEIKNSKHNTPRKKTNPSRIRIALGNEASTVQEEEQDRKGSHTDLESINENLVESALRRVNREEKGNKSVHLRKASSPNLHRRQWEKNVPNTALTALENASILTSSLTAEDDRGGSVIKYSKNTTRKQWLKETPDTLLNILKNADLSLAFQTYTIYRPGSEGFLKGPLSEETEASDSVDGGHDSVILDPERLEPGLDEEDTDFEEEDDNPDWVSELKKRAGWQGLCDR
In words: Inhibition of human NEK3 at 1.82 nM by HotSpot assay relative to control.

In assay [14] the target is cAMP-dependent protein kinase (PKA) (Homo sapiens) (UniProt P22694+P17612+P22612). In words: Inhibition of human PKA at 1.82 nM by HotSpot assay relative to control. The class given is protein assay.
The target of assay [15] is Casein kinase I isoform gamma-1 (Homo sapiens) (UniProt Q9HCP0). In words: Inhibition of human CK1g1 at 1.82 nM by HotSpot assay relative to control.
Chain of Casein kinase I isoform gamma-1 (Homo sapiens) (Q9HCP0 whole entry, looked up, canonical isoform): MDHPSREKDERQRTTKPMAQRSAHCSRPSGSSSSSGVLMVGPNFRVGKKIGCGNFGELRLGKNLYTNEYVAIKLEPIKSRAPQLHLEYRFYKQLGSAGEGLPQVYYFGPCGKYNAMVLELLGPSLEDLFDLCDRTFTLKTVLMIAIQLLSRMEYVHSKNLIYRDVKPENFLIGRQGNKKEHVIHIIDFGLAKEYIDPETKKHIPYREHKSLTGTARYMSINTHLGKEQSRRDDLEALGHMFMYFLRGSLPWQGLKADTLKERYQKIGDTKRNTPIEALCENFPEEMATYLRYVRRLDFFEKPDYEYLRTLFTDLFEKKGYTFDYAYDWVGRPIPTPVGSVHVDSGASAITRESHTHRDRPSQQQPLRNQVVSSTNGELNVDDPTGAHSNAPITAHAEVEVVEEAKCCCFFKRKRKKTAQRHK
Assay [16] has as its target Serine/threonine-protein kinase 16 (Homo sapiens) (UniProt O75716). The assay can be described thus: Inhibition of human STK16 at 1.82 nM by HotSpot assay relative to control.

Broadly, the inhibition is the drop in the measured response relative to a control, in per cent.

Chain of Serine/threonine-protein kinase 16 (Homo sapiens) (O75716 whole entry): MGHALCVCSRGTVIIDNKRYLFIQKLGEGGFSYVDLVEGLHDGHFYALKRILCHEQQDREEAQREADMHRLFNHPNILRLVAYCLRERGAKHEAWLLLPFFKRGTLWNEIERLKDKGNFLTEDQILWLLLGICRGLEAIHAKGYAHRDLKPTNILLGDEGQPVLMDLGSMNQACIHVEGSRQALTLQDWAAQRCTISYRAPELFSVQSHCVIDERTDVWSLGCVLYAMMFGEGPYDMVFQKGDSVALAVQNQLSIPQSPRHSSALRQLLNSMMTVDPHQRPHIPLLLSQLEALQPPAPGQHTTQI
Chain of MAP kinase-activated protein kinase 2 (Homo sapiens) (P49137 whole entry, looked up): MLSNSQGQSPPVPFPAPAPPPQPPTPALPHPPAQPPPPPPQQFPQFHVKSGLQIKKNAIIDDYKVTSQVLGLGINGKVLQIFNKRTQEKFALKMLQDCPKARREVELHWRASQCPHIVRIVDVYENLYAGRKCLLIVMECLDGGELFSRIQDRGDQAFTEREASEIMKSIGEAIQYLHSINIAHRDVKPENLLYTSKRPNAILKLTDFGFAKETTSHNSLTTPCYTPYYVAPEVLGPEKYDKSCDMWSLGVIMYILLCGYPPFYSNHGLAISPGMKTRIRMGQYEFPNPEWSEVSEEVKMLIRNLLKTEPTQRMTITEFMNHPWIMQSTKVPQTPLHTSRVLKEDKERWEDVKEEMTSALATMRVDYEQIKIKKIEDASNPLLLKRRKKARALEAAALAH
Chain of Non-receptor tyrosine-protein kinase TYK2 (Homo sapiens) (P29597 whole entry): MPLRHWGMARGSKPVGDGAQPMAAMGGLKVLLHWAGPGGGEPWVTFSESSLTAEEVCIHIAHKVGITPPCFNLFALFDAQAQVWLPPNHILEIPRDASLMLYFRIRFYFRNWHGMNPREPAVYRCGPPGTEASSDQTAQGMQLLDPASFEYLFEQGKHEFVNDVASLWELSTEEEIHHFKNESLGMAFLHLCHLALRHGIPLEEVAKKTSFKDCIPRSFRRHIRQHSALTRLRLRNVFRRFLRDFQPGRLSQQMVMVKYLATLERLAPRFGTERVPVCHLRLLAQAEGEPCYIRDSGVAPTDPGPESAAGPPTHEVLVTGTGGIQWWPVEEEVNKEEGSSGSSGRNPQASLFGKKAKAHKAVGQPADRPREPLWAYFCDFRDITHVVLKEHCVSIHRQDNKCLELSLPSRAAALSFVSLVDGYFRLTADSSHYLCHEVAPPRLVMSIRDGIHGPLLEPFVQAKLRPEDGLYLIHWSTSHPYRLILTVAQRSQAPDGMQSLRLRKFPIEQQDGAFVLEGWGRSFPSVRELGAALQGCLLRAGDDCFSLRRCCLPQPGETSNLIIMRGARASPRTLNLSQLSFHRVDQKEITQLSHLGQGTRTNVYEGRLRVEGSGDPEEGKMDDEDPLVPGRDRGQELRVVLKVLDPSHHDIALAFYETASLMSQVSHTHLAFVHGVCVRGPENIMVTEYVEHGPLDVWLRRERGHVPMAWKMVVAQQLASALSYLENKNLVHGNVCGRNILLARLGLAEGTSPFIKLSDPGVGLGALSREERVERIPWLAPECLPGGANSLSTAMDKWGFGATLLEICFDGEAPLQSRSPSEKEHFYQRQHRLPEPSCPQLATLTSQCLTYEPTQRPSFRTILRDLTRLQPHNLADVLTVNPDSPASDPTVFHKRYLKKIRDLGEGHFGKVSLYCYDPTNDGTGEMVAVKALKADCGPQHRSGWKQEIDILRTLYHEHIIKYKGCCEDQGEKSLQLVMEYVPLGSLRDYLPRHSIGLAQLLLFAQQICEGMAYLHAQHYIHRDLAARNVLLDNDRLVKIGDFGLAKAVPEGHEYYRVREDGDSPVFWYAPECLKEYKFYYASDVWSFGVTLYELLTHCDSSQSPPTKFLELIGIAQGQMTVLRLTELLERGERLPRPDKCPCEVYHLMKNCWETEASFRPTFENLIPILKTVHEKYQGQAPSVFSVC

Regarding `C[C@]1(O)C[C@@H](c2nc(-c3ccc4ccc(-c5ccccc5)nc4c3)c3c(N)nccn32)C1`, the inhibition in assay [1] was -2.29%; in assay [2], 9.07%; in [3], -4.07%; in assay [4], 1.32%; in [5] it was 5.71%; in assay [6], 0.83%. In [7], the inhibition was -7.69%.

Take `C[C@@]1(C(=O)Nc2ccc(F)nc2)CCCN1c1nc(Nc2cc(C3CC3)n[nH]2)c2cccn2n1`: the inhibition is 4% in [8]; -6.97% in assay [9]; -4.97% in assay [10]; 4.72% in assay [11]; 4.93% in assay [12]; 1.63% in assay [13]. For the same compound, the inhibition in assay [14] is -3.44%; in assay [15], -3.54%; in [16] it was -1.36%.

The values above are taken from ChEMBL document CHEMBL5653615 (J Biol Chem, 2013).
